Consider two compounds from US20230189806A1, “FUNGICIDAL COMBINATIONS” (UPL Corporation Limited, priority 2021, published 2023).

One experiment has as its system S. sclerotiorum. Briefly: Paper towel roll method, incidence of S. sclerotiorum in inoculated soybean seeds. Format: in vivo, Sclerotinia sclerotiorum. The settings on record: % control of S. sclerotiorum, 14 days at 25° C. As for the experimental part:
Colby Calculation: This effectiveness of all treatments as measured by percent reduction in the target phytopathogen growth, was also evaluated according to Colby's equation as below. E=X+Y−XY/100 Colby's equation If the actual/observed anti-phytopathogenic efficacy of the ipconazole and thiabendazole combination against S. sclerotiorum exceeds the calculated value, then the activity of the combination is super additive, i.e., a synergistic effect exists. In this case, the efficacy which was actually observed must be greater than the value for the expected efficacy (E) calculated from the abovementioned formula. Methodology: To evaluate the incidence of the pathogen S. sclerotiorum in soybean seeds, the laboratory paper towel roll method was used. A paper towel on a flat surface was placed and moistened with water until it was thoroughly damp. A sample size of a total of 100 soybean seeds in rows were placed on the towel. The seeds were inoculated with the fungal pathogen. The seeds were pre-treated as per the treatments mentioned in the Table 5. A second towel was moistened and placed onto the first paper towel, leaving the seeds sandwiched between the two towels. It was observed that air space in between the two towels was maintained, if not, excessive water should be removed. The two towels were rolled with the seeds in-between and place in a sealed container that retained the moisture. The paper rolls were placed upright and incubated for 14 days in an incubator at 25° C. and at a 12 h photoperiod in plastic bags, which is used to maintain humidity during the incubation. For each treatment, 400 seeds were analyzed, 8 repetitions with 50 seeds each repetition.

In another experiment the test system is Rhizoctonia solani. Briefly: Seed treatment bio-efficacy against Rhizoctonia solani in inoculated soybean seeds. The experiment is classed as in vivo. Particulars: % control of Rhizoctonia solani. As for the experimental part:
This effectiveness of all treatments as measured by percent reduction in the target phytopathogen growth, was also evaluated according to Colby's equation as below. E=X+Y−XY/100 Colby's equation If the actual/observed anti-phytopathogenic efficacy of the ipconazole and thiabendazole combination against Rhizoctonia solani growth exceeds the calculated value, then the activity of the combination is super additive, i.e., a synergistic effect exists. In this case, the efficacy which was actually observed must be greater than the value for the expected efficacy (E) calculated from the abovementioned formula. Methodology: Experiments were carried out to evaluate the bio-efficacy of combinations according to the invention of the present disclosure consisting of ipconazole and thiabendazole against Rhizoctonia solani fungi in soybean seeds. The seeds were inoculated with Rhizoctonia solani. The fungicides were tank mixed and applied as seed treatment as described in table 4 below. Spraying volume was 5 ml/kg.

Structures are written as SMILES.

Turning to `CC(C)C1CCC(Cc2ccc(Cl)cc2)C1(O)Cn1cncn1` (centres unmarked) [Ipconazole], the “Observed efficacy of demethylation inhibitor fungicide (%)” value in the experiment on S. sclerotiorum (ipconazole 5.6 g a.i./100 kg seed) is on record as 21.3%; with S. sclerotiorum (ipconazole 7.78 g a.i./100 kg seed) it was 6.7%; in the experiment with Rhizoctonia solani (ipconazole 2 g a.i./100 kg seed), 49.05%; in the experiment on Rhizoctonia solani (ipconazole 3 g a.i./100 kg seed), 67.92%.
On to `c1ccc2[nH]c(-c3cscn3)nc2c1` [Thiabendazole], for which the “Observed efficacy of β-tubulin assembly inhibitor fungicide (%)” value with S. sclerotiorum (thiabendazole 30.9 g a.i./100 kg seed) worked out at 14.6%; in the experiment on S. sclerotiorum (thiabendazole 61.9 g a.i./100 kg seed) it was 67.4%; in the experiment on Rhizoctonia solani (thiabendazole 12 g a.i./100 kg seeds), 43.39%; in the experiment with Rhizoctonia solani (thiabendazole 18 g a.i./100 kg seeds), 56.60%.
